Source: patent US20250041377A1, “PHARMACEUTICAL USE” (ENLITISA (SHANGHAI) PHARMACEUTICAL CO., LTD., priority 2018, published 2025)
Where a SMILES comes first, the peptide text is derived from it. [ ]: non-standard residue; d: D form. Hyp = O=C(O)[CH]1C[CH](O)CN1

Tests used:
[1] = system: TNF-α, IL-6 and IL-1B in exudate; experiment: Air pouch model, ELISA of exudate; assay type: in vivo, C57BL/6 mice; conditions: 300 μg/mouse into air pouch; FIG. 1
Experimental: Healthy adult male C57BL/6 mice weighing between 20 and 30 g were supplied by Nanjing Biomedicial Research Institute of Nanjing University (NBRI). Prior to any experiments being conducted, mice were housed under standardized conditions (at a constant temperature of 22±2° C., with alternating 12 hour periods of light and darkness), and were fed on a standard mouse diet with water, for about a week.
General anesthesia was induced using intraperitoneal 3% chloral hydrate (Sinopharm Chemical Reagent Co., Ltd., Shanghai, China; 1 mL/10 g of body weight). The hair of the entire dorsum was shaved and depilated 1 day before sterile air injection.
Air pouches were produced by subcutaneous injection of sterile air (5 mL) into the intrascapular area of the mice. After three days, another injection of air (3 mL) was performed to maintain the pouches. […]
Exudates were collected and volumes were quantified. The exudates were centrifuged at 3000 rpm for 10 minutes at 4° C., and the supernatants were collected and stored at −20° C. for ELISA analysis using standard ELISA test kits from Beijing 4A Biotech Co., Ltd. (Beijing) and an ELISA reader (SH-1000 Hitachi, Japan) for […] (TNF-α), interleukin 1 beta (IL-1B), interleukin 6 (IL-6). […]

[2] = system: bleomycin-induced pulmonary fibrosis; experiment: Idiopathic pulmonary fibrosis (IPF) model; assay type: in vivo, Sprague Dawley rats; design: lung coefficient: unit not given here
Experimental: Experimental animals and grouping: 40 adult male Sprague Dawley rats, after 7 days of adaptive feeding, were divided into 4 groups: sham-operation group (Sham), IPF model group (no treatment; Model), test group (Compound B) and positive control group (Positive Control).
The test were administered Compound B, at a dose of 130 μg/rat, which was introduced by aerosolized inhalation. Oral administration of pirfenidone (Etuary®, Beijing Continent Pharmaceutical Co., Ltd., Beijing, China) as a 120 mg/kg single-bolus dose served as the positive control.
A pulmonary fibrosis model was established by intratracheal instillation of bleomycin. The rats were anaesthetised and placed on an operating table in the supine position, to expose the trachea. Bleomycin (5 mg/kg) saline solution was injected into the trachea through the gap between the tracheal cartilage rings. The sham-operation group were given an equal volume of normal saline. Shortly after administration, the rats were lifted vertically and were rotated, in order to evenly disperse the drug. Once the rats had recovered, after approximately 5 days, they were administrated the different drugs according to the plan for 28 days, consecutively.
The exhaust volume of the atomizing device was 0.15 mL per minute. The inhalation time for each rat was 1 minute.
At Day 29 following drug administration, rats were anesthetized by i.p. injection of chloral hydrate. After orbital blood collection, the rats were sacrificed. The thoracic cavity was quickly opened and the lung was collected for further analysis. The lung wet weight was measured, and the lung coefficient was calculated (lung wet weight/rat weight×1000). The tissue was stored in refrigerator at −80° C. for further use.
A piece of lung tissue was accurately weighed, and 9 times the weight of saline was added. Then, the tissue was homogenized and centrifuged for 10 minutes at 3000 rpm. The homogenate was used to detect the expression of the transformation growth factor (TGF-β1), tumor necrosis factor-α (TNF-α) and alpha-smooth muscle actin (α-SMA). Standard ELISA methods were used for the detection. The contents of malonaldehyde (MDA) and the activity of superoxide dismutase (SOD) in lung tissue were also detected.

fever = experiment: Aerosol inhalation to treat fever; assay type: in vivo, human
Experimental: The same formulation as described in Example 14 above was administered to a subject who enrolled in the study having had got a fever (a body temperature over 38.5° C.) for 1 day. Other anti-fever medications were not used prior to treatment.
The subject was required to use the aerosol inhalation device in the morning and in the evening by pouring 3 mL of the formulation into an atomizer storage tank connected to an atomizer and a mask, which was worn over the mouth and nose.

ammonia induced cough = experiment: Antitussive experiment, ammonia induced cough method; assay type: in vivo, ICR mice
Experimental: 36 ICR mice were randomly divided into 3 groups according to their body weight, labelled a CMC-Na (Negative) control group, a dextromethorphan hydrobromide (Positive) control group and a Compound B (B) group. Each group contained 12 mice, with 6 males and 6 females in each.
Compound B was administered via atomization inhalation using a YLS-8A Multifunctional cough and sputum inducing device (Jinan Yiyan Science and Technology Co., Ltd.) (0.15 ml/min) for 1 minute, once daily for 5 days. And the positive control drug was administered once daily by intragastric administration at 10 mg/kg for 5 days.
The mice were placed in an inverted beaker 1, 2, and 4 hours after the last drug administration. 1 mL of aqueous ammonia (25.0 to 28.0%) was placed on top of a boiling water bath and was evaporated into the beaker.
The time for mice to receive ammonia exposure was determined by a method characterized by analyzing data immediately after one test or a batch of tests. The results of the previous analysis determined how to conduct the next test or batch of tests.
The difference between the logarithmic value of two adjacent time periods was 0.1.
The number of coughs within 1 minute was detected using a stethoscope. If a mouse coughed three or more times over one minute, this was labelled as called ‘cough’, and less than three times in one minute was labelled ‘cough free’.
The EDT50 was defined as the ammonia stimulating time at which half mice developed a “cough”, calculated by the equation: […]
(c equals the sum of r and x, r is the number of animals in each stimulating time group, x is the logarithm of stimulation time and n was the number of animals in each group). lg is a base 10 logarithmic value.
In Table 15, R is the EDT50 in treatment group divided by the EDT50 in the Control group expressed as a percentage.

[3] = lung tissue homogenate, Day 29, Compound B 130 μg/rat aerosolized inhalation, pirfenidone gavage, 28 days

## CC(N)C(=O)NC(CCCCN)C(=O)N1CCCC1C(=O)NC(CO)C(=O)NC(Cc1ccc(O)cc1)C(=O)N1CC(O)CC1C(=O)N1CC(O)CC1C(=O)NC(C(=O)NC(Cc1ccc(O)cc1)C(=O)NC(CCCCN)C(=O)O)C(C)O (stereo not drawn) [Compound B, Ala-Lys-Pro-Ser-Tyr-Hyp-Hyp-Thr-Tyr-Lys] (H-AKPSY[Hyp][Hyp]TYK-OH; configuration not given here)
[1]
  ELISA test results of the exudate for TNF-α, IL-6 and IL-1B: very strong anti-inflammatory effects
[2]; compared with pirfenidone
  inhibition of production of TNF-α, α-SMA and TGF-β1 in lung tissue: almost equivalent to that of the known IPF drug, pirfenidone
[2]; [3]
  TGF-β1: 0.40 ± 0.02 ng/mg protein
  TNF-α: 187.91 ± 12.20 pg/mg protein
  α-SMA: 10.85 ± 1.42 pg/mg protein
[2]; lung tissue, Day 29
  MDA: 0.17 ± 0.04 U/mg protein
  SOD: 48.64 ± 1.85 U/mg protein
[2]; lung wet weight/rat weight×1000, Day 29
  lung coefficient: 5.14 ± 0.37
fever; 0.5 mg/mL aerosol inhalation, morning and evening
  recurrence of fever symptoms: did not recur after 3 uses
fever; 0.5 mg/mL, 3 mL aerosol inhalation, subject with body temperature over 38.5° C.
  body temperature: within two hours, their body temperature had dropped to normal
Ammonia induced cough; 1 hour after admin., EDT50 in treatment group divided by EDT50 in Control group
  R: 131.7%
Ammonia induced cough; 1 hour after last administration, B 195 μg/mouse atomization inhalation, Positive 10 mg/kg intragastric, once daily 5 days
  EDT50: 28.2 s
Ammonia induced cough; 2 hours after admin., EDT50 treatment/Control
  R: 131.8%
Ammonia induced cough; 2 hours after last administration
  EDT50: 28.2 s
Ammonia induced cough; 4 hours after admin., EDT50 treatment/Control
  R: 100 [???] %
Ammonia induced cough; 4 hours after last administration
  EDT50: 26.9 s
Ammonia induced cough; at 1 and 2 hours
  effect on cough relief: positive effect on cough relief
